The subject of assay [1] is vaginal epithelial cells. The assay can be described thus: Effect on mitosis of vaginal epithelial cells in mice. It is filed as in vivo. The settings on record: 15 mg/kg by gavage, once a day for 3 days; mitoses per 100 fundus cells. The method, then:
60 female NIH mice of 27 g±2 g were selected. After being intraperitoneally injected with diethylstilbesrolum for 3 days continuously, 0.2 mg/day for each animal, all the mice were left in estrum interval. From the 4th day, the mice were randomly divided into four groups, 15 mice each. The mice of the four groups were administrated for three days by gavage with 150 mg/kg of total coumarins, 75 mg/kg of total coumarins, 15 mg/kg of anthralin and 15 ml/kg of physiological saline, respectively, once one day. The last administration was carried out at 8:00 am in order to avoid the interference of various administration rhythms between day and night in the mice to the test result. At 9:00 am, 2 mg/kg of colchicine was injected to the mice to make the mitosis of vaginal epithelial cells stopped at the middle cycle of M phase.
The mice were killed at 2 pm. A sample from the vagina of the animal was taken out and fixed in a 10% formaldehyde solution. A slice of tissue was observed under an optical microscope. The number of mitosis per 300 fundus cells was counted to obtain an average number of mitosis among 100 fundus cells, which was regarded as the index of mitosis of vaginal epithelial cells.

In assay [2] the test system is passive cutaneous anaphylaxis (PCA) of rats. The assay can be described thus: Inhibition of passive cutaneous anaphylaxis (PCA) of rats. Particulars: 15 mg/kg by gavage, 3 days. Type of assay: in vivo. The method, then: Hair on the back of 40 SD rats, 180 g±10 was shaved off. 0.2 ml of a diluted rat-antiserum (1:10) was hypodermically injected into each rat through two places on the back, 0.1 ml for each place. After being injected, the rats were di vided randomly into four groups, which were administered by gavage with 75 mg/kg of total coumarins, 150 mg/kg of total coumarins, 15 mg/kg of anthralin and 15 ml/kg of distilled water for 3 days, once per day. After the injection with the rat-antiserum 48 hours, 1 ml of 0.5% evans blue, […], was intravenously injected into the rats through the caudal vein. The rats were killed in 20 minutes. A piece of skin with blue speckles was taken out from the back, and immersed in 5 ml solution of acetone/physiological saline (acetone:physiological saline=7-3 v/v) for 24 hs. After centrifugation; the supernatant was taken for measuring the optical density (OD) at 590 nm. Inhibition rate was obtained in accordance with the following equation. […] Inhibition (%)=[OD(control)−OD(drug)]×100%/OD(control)

The structures appear in SMILES notation.

What is called inhibition is the percentage by which the read-out fell short of the control. The low end stands for a weak effect, the high end for a strong effect.

As to `O=C1c2c(O)cccc2Cc2cccc(O)c21` [Anthralin, anthralin], in assay [1], the “Index of Mitosis %” value stood at 13.4 ± 2.1 %. For the same compound, in assay [2] (OD at 590 nm of evans blue skin extract), the OD is listed as 0.043 ± 0.25. The same compound came in with an inhibition at 15 mg/kg in assay [2] (Rattus norvegicus, po, 72 h) of 51.7%.

The record behind these values is patent US10383843B2, “Use of total coumarins of cnidium fruit in preparing medicaments for treating psoriasis” (priority 2013, dated 2019).
